The text below walks through data of patent publication US10023593B2, “ALK kinase inhibitor, and preparation method and uses thereof” (BEIJING PEARL BIOTECHNOLOGY LIMITED LIABILITY COMPANY, priority 2014, dated 2018).

The target in one assay is T1, L1196M mutant ALK kinase (Homo sapiens, UniProt Q9UM73, L1196M).
T1 construct: purchased Sino-US Crown Bioscience, Inc. batch number ALKm_20110923
Put plainly: HTRF KinEASE-TK assay, inhibitory activity on L1196M mutant ALK kinase. The note with it: L1196M mutant ALK 1 ng/μl, substrate 1 μM, ATP 5 μM, 30° C. 35 minutes, read-out: Inhibition on ALK kinases (L1196M mutant), IC50. Format: biochemical. An excerpt: 2. Inhibitory Activities of the Compounds of the Present Invention on L1196M Mutant ALK Kinases
? experimental method ? HTRF KinEASE™-TK Assay kit from Cisbio company was used to detect inhibitory activities of the compounds on L1196M mutant ALK kinases.
(§1) ? instrument ? Envision 2104 plate reader from PerKinElmer company.
? experiment material ? HTRF KinEASE™-TK Assay Kit (Cisbio company, catalog No. 62TK0PEC); L1196M mutant ALK kinase (produced by Sino-US Crown Bioscience, Inc., batch number ALKm_20110923); DTT (Gibco BRL company, catalog No. 15508-012); MgCl2 (Sigma Aldrich company, catalog No. M-2670); ATP (Sigma Aldrich company, catalog No. A-7699, batch number 051M7014V); DMSO (AMRESCO company, catalog No. 0231); EDTA (AMRESCO company, catalog No. 0105); 96 wells plates (for diluting compounds) (CITOTEST company, catalog No. Ref36020096D); OptiPlate™-384 (White), PerkinElmer company, catalog No. P12-004)
(§2) ? experimental condition ? Compounds (the final concentration of DMSO was 1%), the reaction substrate (the final concentration was 1 μM), ATP (the final concentration was 5 μM), and L1196M mutant ALK kinases (the final concentration was 1 ng/μl) were mixed respectively in a final volume of 10 μl reaction system (containing 5 mM MgCl2, 1× Kinase buffer, and 1 mM DTT). The mixture was reacted at 30° C. for 35 minutes after shaking for 30 seconds. After completion of the reaction, each well was added with 5 μl Sa-XL665 and 5 μl TK Antibody-Eu(K), and placed in the dark for 60 minutes to end the reaction after uniform mixing. The data was read from PerkinElmer EnVision plate reader ([…]), the 665/615 ratio was calculated, and the data was analyzed.
(§3) ? tested samples ? Compounds from the examples.
(§4) ? data analysis ? Minimum 665/615 ratio (Rmin, 665/615 ratio under the condition that 10.4 μM positive control drug LDK-378 was added)
(§5) Maximum 665/615 ratio (Rmax, 665/615 ratio under the condition that no compound was added)
(§6) Tested 665/615 ratio (Rcompound, 665/615 ratio under the condition that a given concentration of compound was added) Inhibition rate (%)=[1−(Rcompound−Rmin)/(Rmax−Rmin)]×100
(§7) ? data processing ? IC50 of compounds was calculated by using XLfit program in Excel.
Background: In TR-FRET formats the signal depends on donor and acceptor labels being close together.

A further assay deals with T2, Wild Type ALK kinase (Homo sapiens, UniProt Q9UM73).
T2 construct: purchased Sino-US Crown Bioscience, Inc. batch number ALK 20110607
T2 sequence (Q9UM73 19-1620): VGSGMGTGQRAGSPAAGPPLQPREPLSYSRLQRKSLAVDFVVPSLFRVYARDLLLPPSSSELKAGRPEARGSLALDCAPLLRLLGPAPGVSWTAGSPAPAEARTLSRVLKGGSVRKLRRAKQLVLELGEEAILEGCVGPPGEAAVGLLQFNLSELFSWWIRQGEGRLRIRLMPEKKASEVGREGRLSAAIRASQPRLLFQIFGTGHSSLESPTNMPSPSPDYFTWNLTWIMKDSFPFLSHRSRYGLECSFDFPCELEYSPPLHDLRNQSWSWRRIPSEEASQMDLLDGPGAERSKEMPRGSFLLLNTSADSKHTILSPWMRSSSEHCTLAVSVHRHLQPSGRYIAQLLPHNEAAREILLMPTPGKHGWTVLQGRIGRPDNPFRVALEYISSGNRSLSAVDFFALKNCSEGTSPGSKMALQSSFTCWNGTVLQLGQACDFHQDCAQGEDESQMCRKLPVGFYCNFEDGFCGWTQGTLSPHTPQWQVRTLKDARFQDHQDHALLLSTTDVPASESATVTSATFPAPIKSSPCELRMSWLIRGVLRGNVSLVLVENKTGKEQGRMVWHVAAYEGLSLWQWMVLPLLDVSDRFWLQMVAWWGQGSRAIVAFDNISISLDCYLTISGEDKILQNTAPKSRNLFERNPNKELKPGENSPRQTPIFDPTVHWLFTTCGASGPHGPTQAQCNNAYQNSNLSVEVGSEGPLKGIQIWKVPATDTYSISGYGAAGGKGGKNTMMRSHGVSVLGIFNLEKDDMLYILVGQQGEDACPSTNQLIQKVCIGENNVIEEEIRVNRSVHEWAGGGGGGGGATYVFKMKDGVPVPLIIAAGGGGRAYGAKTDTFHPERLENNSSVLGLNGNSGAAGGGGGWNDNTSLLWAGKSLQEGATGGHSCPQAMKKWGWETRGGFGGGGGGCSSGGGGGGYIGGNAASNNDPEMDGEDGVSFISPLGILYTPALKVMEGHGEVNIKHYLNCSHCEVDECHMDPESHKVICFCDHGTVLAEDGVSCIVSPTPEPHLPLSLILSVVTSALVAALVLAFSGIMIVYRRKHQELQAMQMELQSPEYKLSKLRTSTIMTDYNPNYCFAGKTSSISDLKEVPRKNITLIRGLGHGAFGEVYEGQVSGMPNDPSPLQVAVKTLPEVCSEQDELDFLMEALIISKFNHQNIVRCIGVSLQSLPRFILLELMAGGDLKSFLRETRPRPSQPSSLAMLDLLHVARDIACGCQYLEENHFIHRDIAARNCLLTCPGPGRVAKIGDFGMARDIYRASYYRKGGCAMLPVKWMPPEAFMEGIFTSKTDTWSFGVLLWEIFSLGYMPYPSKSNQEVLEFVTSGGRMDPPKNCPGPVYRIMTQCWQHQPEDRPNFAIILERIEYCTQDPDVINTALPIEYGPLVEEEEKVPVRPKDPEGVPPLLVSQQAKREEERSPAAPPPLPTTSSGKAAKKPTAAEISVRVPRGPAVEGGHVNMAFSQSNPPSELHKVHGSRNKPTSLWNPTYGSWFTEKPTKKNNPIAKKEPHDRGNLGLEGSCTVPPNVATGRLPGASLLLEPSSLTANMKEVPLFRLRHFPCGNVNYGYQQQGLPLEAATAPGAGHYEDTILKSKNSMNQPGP
As to the kind of experiment: HTRF KinEASE-TK assay, inhibitory activity on wild type ALK kinase. Type of assay: biochemical. The note with it: wild type ALK 1 ng/μl, substrate 1 μM, 30° C. 35 minutes, read-out: Inhibition on ALK kinases (wildtype), IC50.
Description: 1. Inhibitory Activities of the Compounds of the Present Invention on Wild Type ALK Kinases
? experimental method ? HTRF KinEASE™-TK Assay kit from Cisbio company was used to detect inhibitory activities of the compounds on wildtype ALK kinases (wild type ALK kinases).
as §1
? experiment material ? HTRF KinEASE™-TK Assay Kit (Cisbio company, catalog No. 62TK0PEC); Wild Type ALK kinase (produced by Sino-US Crown Bioscience, Inc., batch number ALK 20110607); DTT (Gibco BRL company, catalog No. 15508-012); MgCl2 (Sigma Aldrich company, catalog No. M-2670); ATP (Sigma Aldrich company, catalog No. A-7699); DMSO (AMRESCO company, catalog No. 0231); EDTA (AMRESCO company, catalog No. 0105); 96 wells plates (for diluting compounds) (CITOTEST company, catalog No. Ref36020096D); OptiPlate™-384 (White), PerkinElmer company, catalog No. P12-004)
as §2, with “[…]),” for “5 μM),”, “Wildtype” for “L1196M mutant”
as §3, §4, §5, §6, §7

A further assay addresses cytochrome P450 2C9 (Homo sapiens, UniProt P11712). Put plainly: Inhibitory activity on cytochrome P450 2C9. Format: in vitro ADME. As to conditions: no significant inhibition.
Another assay addresses T3, cytochrome P450 1A2 (Homo sapiens, UniProt P05177).
T3 sequence (P05177 1-516): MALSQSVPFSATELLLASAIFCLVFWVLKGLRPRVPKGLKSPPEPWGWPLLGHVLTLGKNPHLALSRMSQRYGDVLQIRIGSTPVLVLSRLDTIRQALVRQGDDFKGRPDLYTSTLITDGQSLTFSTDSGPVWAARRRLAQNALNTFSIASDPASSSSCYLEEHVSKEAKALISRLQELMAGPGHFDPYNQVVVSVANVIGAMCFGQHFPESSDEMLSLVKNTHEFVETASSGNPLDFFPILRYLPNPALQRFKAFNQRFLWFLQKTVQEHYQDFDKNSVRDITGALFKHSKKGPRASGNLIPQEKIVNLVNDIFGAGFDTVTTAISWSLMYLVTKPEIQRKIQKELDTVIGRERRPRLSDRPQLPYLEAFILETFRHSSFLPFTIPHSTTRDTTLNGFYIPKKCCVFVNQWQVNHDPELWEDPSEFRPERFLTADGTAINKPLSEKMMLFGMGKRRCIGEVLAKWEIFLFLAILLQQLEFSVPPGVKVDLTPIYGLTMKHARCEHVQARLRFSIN
As to the kind of experiment: Inhibitory activity on cytochrome P450 1A2. Format: in vitro ADME. The note with it: no significant inhibition.

For the next assay, the target named is cytochrome P450 2D6 (Homo sapiens, UniProt P10635). Put plainly: Inhibitory activity on cytochrome P450 2D6. Format: in vitro ADME. As to conditions: no significant inhibition.
Chain of cytochrome P450 2D6 (P10635 whole entry): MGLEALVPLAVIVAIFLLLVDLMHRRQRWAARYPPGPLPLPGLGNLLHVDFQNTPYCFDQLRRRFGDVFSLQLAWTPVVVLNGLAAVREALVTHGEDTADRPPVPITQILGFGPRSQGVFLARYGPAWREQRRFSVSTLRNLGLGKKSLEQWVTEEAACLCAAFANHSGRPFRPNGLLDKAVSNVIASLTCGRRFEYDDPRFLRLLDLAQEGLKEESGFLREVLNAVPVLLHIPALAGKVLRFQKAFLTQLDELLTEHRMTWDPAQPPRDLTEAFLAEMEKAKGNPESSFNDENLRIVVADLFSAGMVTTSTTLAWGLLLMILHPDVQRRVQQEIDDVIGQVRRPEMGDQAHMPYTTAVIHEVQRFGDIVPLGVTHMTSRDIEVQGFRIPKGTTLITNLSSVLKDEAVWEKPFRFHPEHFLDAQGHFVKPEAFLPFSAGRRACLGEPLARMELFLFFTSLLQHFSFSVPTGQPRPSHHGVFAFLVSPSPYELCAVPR
The target of a further assay is cytochrome P450 2C19 (Homo sapiens, UniProt P33261). As to the kind of experiment: Inhibitory activity on cytochrome P450 2C19. Format: in vitro ADME. As to conditions: no significant inhibition.
Chain of cytochrome P450 2C19 (P33261 whole entry): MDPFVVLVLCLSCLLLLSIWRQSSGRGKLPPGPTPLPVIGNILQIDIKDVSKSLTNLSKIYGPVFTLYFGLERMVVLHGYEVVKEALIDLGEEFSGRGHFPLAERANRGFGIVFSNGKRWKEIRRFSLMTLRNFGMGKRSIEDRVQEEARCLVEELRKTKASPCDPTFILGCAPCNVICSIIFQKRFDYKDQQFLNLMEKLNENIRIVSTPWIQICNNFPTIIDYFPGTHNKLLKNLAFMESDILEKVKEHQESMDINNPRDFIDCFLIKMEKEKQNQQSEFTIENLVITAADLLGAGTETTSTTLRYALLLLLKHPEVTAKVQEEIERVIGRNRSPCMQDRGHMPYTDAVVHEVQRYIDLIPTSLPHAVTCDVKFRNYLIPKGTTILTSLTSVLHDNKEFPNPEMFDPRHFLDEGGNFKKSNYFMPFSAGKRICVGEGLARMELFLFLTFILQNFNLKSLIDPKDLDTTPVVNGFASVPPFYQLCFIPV
The target in the next assay is cytochrome P450 3A4 (Homo sapiens, UniProt P08684). As to the kind of experiment: Inhibitory activity on cytochrome P450 3A4. Type of assay: in vitro ADME. As to conditions: no significant inhibition.
Chain of cytochrome P450 3A4 (P08684 whole entry): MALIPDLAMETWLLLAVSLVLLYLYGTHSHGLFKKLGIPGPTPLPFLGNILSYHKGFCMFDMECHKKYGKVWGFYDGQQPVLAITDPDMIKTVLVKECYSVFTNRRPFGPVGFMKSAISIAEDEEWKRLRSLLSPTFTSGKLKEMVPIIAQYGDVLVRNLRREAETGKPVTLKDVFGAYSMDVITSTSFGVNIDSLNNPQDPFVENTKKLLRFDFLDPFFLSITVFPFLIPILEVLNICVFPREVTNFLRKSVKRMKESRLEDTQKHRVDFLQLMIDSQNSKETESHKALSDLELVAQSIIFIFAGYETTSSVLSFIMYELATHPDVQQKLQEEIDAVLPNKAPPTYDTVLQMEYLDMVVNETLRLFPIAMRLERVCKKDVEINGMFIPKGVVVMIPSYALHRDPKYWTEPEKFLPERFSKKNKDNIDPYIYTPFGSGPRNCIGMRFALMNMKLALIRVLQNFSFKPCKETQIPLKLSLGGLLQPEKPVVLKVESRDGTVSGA
The next assay relates to NCI-H2228 cell line. Put plainly: CellTiter-Glo cell proliferation inhibition on NCI-H2228 cell line. Type of assay: cell-based. The note with it: Homo sapiens, NCI-H2228, 96 h, NCI-H2228 cells, 5000 cells/well, 4 days drug treatment. The gist of the method: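 NCI-H2228 cells, 5000/well in RPMI-1640 + 10% FBS, treated with compounds 2 h after seeding (0.5% DMSO final) for 4 days at 37° C. Viability by CellTiter-Glo luminescence; inhibition relative to DMSO control, IC50 from curve fit.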
For orientation: In ATP-based viability assays light output follows the ATP content of the culture.

Another assay relates to Karpas-299 cell line. As to the kind of experiment: CellTiter-Glo cell proliferation inhibition on Karpas-299 cell line. Format: cell-based. The note with it: Homo sapiens, 96 h, Karpas-299 cells, 5000 cells/well, 4 days drug treatment. The method, then: 4. Cell Proliferation Inhibitory Activities of the Compounds of the Present Invention on Karpas-299 Cell Line
? experimental method ? CellTiter-Glo® Luminescent Cell Viability Assay kit from Promega company was used to detect cell proliferation inhibitory activities of the compounds on Karpas-299 cell line.
? instrument ? Envision 2104 plate reader from PerKinElmer company; Vi-Cell XR cell counter from Beckman Counter company; MCO-18AIC CO2 incubator from SANYO company.
? experiment material ? CellTiter-Glo® Luminescent Cell Viability Assay Kit (Promega company, catalog No. G7573); Karpas-299 cell line (DSMZ, catalog No. ACC31); RPMI-1640 medium (HyClone company, catalog No. SH30809.01B); fetal bovine serum (FBS) (Gibco company, catalog No. 10099-141); PBS (HyClone company, catalog No. SH30256.01B); 96 wells cell culture plate (Corning company, catalog No. 3610); DMSO (AMRESCO company, catalog No. 0231); 96 wells plates (for diluting compounds) (CITOTEST company, catalog No. Ref36020096D);
? experimental condition ? Karpas-299 cells in exponential growth phase were collected and viable cells were counted by Vi-Cell XR cell counter. Cell suspension was adjusted to 62500 cells/ml with culture medium (RPMI-1640+10% FBS). 80 μl cell suspension was added into each well of 96 wells cell culture plate so that so that the final cell number of Karpas-299 cells was 5000 cells/well. The cells were cultivated in an incubator with an atmosphere of 37° C., 5% CO2 and 95% humidity for 2 hours and then each well was added with 20 μl compounds in RPMI-1640 medium solution (the final concentration of DMSO was 0.5%). 4 days after drug treatment, each well was added with 50 μl CellTiter-Glo solution which was previously thawed and equilibrated to room temperature, and mixed for 2 minutes with microplate shaker. After placing at room temperature for 10 minutes, luminescence reading value was measured with PerkinElmer Envision 2104 plate reader and the data was analyzed.
? tested samples ? Compounds of the examples.
Luminescence value of DMSO solvent control (Vvehicle control, which is the mean luminescence value from DMSO solvent control group)
Tested luminescence value (Vsample, which is the luminescence value from given concentration of compounds group) Inhibition rate (%)=(1−Vsample/Vvehicle control)×100
as §7

The term IC50 denotes the point on the concentration scale where inhibition reaches its midpoint.

T1 sequence (Q9UM73 19-1620 L1196M): as the sequence (Q9UM73 19-1620) above, with L1178M counted along it
Chain of cytochrome P450 2C9 (P11712 whole entry): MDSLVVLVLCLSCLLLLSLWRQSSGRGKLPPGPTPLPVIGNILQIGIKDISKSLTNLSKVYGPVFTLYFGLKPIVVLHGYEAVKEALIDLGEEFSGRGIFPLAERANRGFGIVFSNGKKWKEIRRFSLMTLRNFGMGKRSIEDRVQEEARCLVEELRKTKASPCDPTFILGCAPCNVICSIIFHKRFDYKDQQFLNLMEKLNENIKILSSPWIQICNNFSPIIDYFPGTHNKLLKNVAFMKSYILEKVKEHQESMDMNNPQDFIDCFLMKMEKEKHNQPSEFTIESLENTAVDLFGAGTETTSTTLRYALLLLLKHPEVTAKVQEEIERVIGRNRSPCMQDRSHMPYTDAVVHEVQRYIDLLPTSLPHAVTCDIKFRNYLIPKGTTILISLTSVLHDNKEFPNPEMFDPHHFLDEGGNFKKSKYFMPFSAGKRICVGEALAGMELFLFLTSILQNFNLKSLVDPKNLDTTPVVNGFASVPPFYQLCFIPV

As for `CC(C)S(=O)(=O)c1nn(C)cc1Nc1nc(Nc2cc(F)c(C3CCN(C)CC3)cc2OC2CC2)ncc1Cl` [Final product 44], the IC50 on L1196M mutant ALK kinase was 4 nM; at Wild Type ALK kinase, 3 nM; on cytochrome P450 2C9, over 10000 nM; at cytochrome P450 1A2 it was over 10000 nM; at cytochrome P450 2D6, over 10000 nM; at cytochrome P450 2C19, over 10000 nM. The molecule also displayed an IC50 against cytochrome P450 3A4 of over 10000 nM.
For `Cc1cc(Nc2ncc(Cl)c(Nc3cn(C)nc3S(=O)(=O)C(C)C)n2)c(OC2CC2)cc1C1CCN(C)CC1` [Final product 51], the IC50 at L1196M mutant ALK kinase is 4 nM; on Wild Type ALK kinase, 2 nM; on cytochrome P450 2C9, over 10000 nM; against cytochrome P450 1A2, over 10000 nM; against cytochrome P450 2D6, over 10000 nM; against cytochrome P450 2C19, over 10000 nM. In addition, the IC50 on cytochrome P450 3A4 is over 10000 nM.
As to `COC1CN(C)CCC1c1cc(OC2CC2)c(Nc2ncc(Cl)c(Nc3cn(C)nc3S(=O)(=O)CC(C)C)n2)cc1C` (centres unmarked) [Final product 59], the IC50 in the assay on NCI-H2228 cell line is 156 nM; in the assay with Karpas-299 cell line, 52 nM.
As for `Cc1cc(Nc2ncc(Cl)c(Nc3cn(C)nc3S(=O)(=O)C(C)C)n2)c(OC2CC2)cc1C1CCCN(C)C1` (centres unmarked) [Final product 60], the IC50 at cytochrome P450 2C9 is over 10000 nM; on cytochrome P450 1A2, over 10000 nM; with NCI-H2228 cell line, 28 nM; on cytochrome P450 2D6, over 10000 nM; at cytochrome P450 2C19, over 10000 nM; on cytochrome P450 3A4, over 10000 nM.
`Cc1cc(Nc2ncc(Cl)c(Nc3cn(C)nc3S(=O)(=O)C(C)C)n2)c(OC(C)C)cc1C1CCN(C)CC1` [Final product 80]: the IC50 at L1196M mutant ALK kinase is 8 nM; on Wild Type ALK kinase it was 4 nM; on cytochrome P450 2C9, over 10000 nM; on cytochrome P450 1A2, over 10000 nM; on cytochrome P450 2D6 it was over 10000 nM; at cytochrome P450 2C19 it was over 10000 nM. This molecule displayed an IC50 at cytochrome P450 3A4 of over 10000 nM.
Take `COCCN1CCC(c2cc(OC3CC3)c(Nc3ncc(Cl)c(Nc4cn(C)nc4S(=O)(=O)CC(C)C)n3)cc2C)CC1` [Final product 83]: the IC50 in the assay with NCI-H2228 cell line was determined as 53 nM; in the assay on Karpas-299 cell line, 11 nM.
Turning to `Cc1cc(Nc2ncc(Cl)c(Nc3cn(C)nc3S(=O)(=O)C(C)C)n2)c(OC(C)C)cc1C1CC(C)N(C)C(C)C1` (centres unmarked) [Final product 97], the IC50 was over 10000 nM against cytochrome P450 2C9; over 10000 nM on cytochrome P450 1A2; 154 nM in the assay on NCI-H2228 cell line; over 10000 nM on cytochrome P450 2D6; over 10000 nM against cytochrome P450 2C19; over 10000 nM against cytochrome P450 3A4.
Take `Cc1cc(Nc2ncc(Cl)c(Nc3cn(C)nc3S(=O)(=O)C(C)C)n2)c(OC2CC2)cc1C1CCN(C)C(C)(C)C1` (centres unmarked) [Final product 100]: the results for the IC50 in the assay on NCI-H2228 cell line and with Karpas-299 cell line were 61 nM and 6 nM, respectively.
The matching figures for `Cc1cc(Nc2ncc(Cl)c(Nc3cn(C)nc3S(=O)(=O)C(C)C)n2)c(OC2CC2)cc1C1CCN(C)C(=O)C1` (centres unmarked) [Final product 103]: 66 nM and 10 nM.
In the case of `Cc1cc(Nc2ncc(Cl)c(Nc3cn(C)nc3S(=O)(=O)C(C)C)n2)c(OC2CC2)cc1C1CCC(N2CCN(C)CC2)CC1` (centres unmarked) [Final product 202], the IC50 at cytochrome P450 2C9 was over 10000 nM; against cytochrome P450 1A2 it was over 10000 nM; in the assay on NCI-H2228 cell line, 141 nM; against cytochrome P450 2D6 it was over 10000 nM; at cytochrome P450 2C19, over 10000 nM; against cytochrome P450 3A4, over 10000 nM.
